The text below walks through data of ChEMBL document CHEMBL5308541, “MAIP: An Open-Source Tool to Enrich High-Throughput Screening Output and Identify Novel, Druglike Molecules with Antimalarial Activity” (ACS Med Chem Lett, 2023).

pIC50: −log10 of the molar value. Values joined by “and” are separate entries in the source; they are usually repeats but may differ in a detail not shown here. Identical values can stand only once.

For data set [1], the system named is Plasmodium falciparum. The data set can be described thus: Hit confirmation in dose-response curve in Dd2 pLDH assay, at 72h. Type of data set: functional, organism-based, Erythrocyte. On the set-up: timepoint 72 hour. The note with it: Plasmodium falciparum, Dd2, Erythrocyte, 72 h.
The subject of data set [2] is Plasmodium falciparum. The data set can be described thus: Re-testing in dose-response curve in 3D7 pLDH assay, at 72h. Type of data set: functional, organism-based, Erythrocyte. Also on record: timepoint 72 hour.
A short description of data set [3]: Hit confirmation in dose-response curve in HepG2 cytotoxicity assay, at 72h. Type of data set: toxicity, cell-based, Homo sapiens. The following applies: human, HepG2 cells. On the set-up: timepoint 72 hour.
Data set [4] relates to HepG2. The data set can be described thus: (§1) Re-testing in dose-response curve in HepG2 cytotoxicity assay, at 72h. On the set-up: timepoint 72 hour. It is filed as toxicity, cell-based, Homo sapiens. The note with it: hepg2.
The nature of data set [5]: as §1. The following applies: human, HepG2 cells. Type of data set: toxicity, cell-based, Homo sapiens. On the set-up: timepoint 72 hour.
Data set [6] deals with Plasmodium falciparum. The data set can be described thus: Hit confirmation in dose-response curve in NF54 pLDH assay, at 72h. It is filed as functional, organism-based, Erythrocyte. On the set-up: timepoint 72 hour. The following applies: Plasmodium falciparum, NF54, Erythrocyte, 72 h.
The test system of data set [7] is Plasmodium falciparum. The data set can be described thus: Hit confirmation in dose-response curve in NF54 nanoGlo assay, at 12h. Type of data set: functional, organism-based, Erythrocyte. Also on record: timepoint 12 hour. The note with it: Plasmodium falciparum, NF54, Erythrocyte, 12 h.
Data set [8] deals with Plasmodium falciparum. The data set can be described thus: Hit confirmation in dose-response curve in NF54 nanoGlo assay, at 72h. On the set-up: timepoint 72 hour. Type of data set: functional, organism-based, Erythrocyte. The note with it: Plasmodium falciparum, NF54, Erythrocyte, 72 h.
For data set [9], the system named is Plasmodium falciparum. The data set can be described thus: Re-testing in dose-response curve in Dd2 pLDH assay, at 72h. Type of data set: functional, organism-based, Erythrocyte. On the set-up: timepoint 72 hour.
[10] abbreviates: Plasmodium falciparum, Dd2, Erythrocyte, 72 h.
Setting [11] is: Plasmodium falciparum, 3D7, Erythrocyte, 72 h.

In general, pIC50 refers to the IC50 on a negative log10 scale, so that one unit is a factor of ten. A lower pIC50 goes with a high IC50. The term IC50 denotes the midpoint of a concentration-inhibition curve. Read a low IC50 as inhibition by little substance. On to `C[C@@H](CNC1CCN(C2CCN(C)CC2)CC1)c1cccc(Cl)c1`, for which the pIC50 in data set [1] is 6.16; in [4], 5.09; in data set [6], 6.05; in data set [7] it was 5.77; in data set [8], 6.14; in [9] (setting [10]), 5.86. Also, the IC50 in data set [2] (erythrocyte) is 633 nM [middle of 4 runs]. In addition, the IC50 at 72 h in [3] was over 10000 nM; in data set [5] it was 9550 nM.

With `Cc1ccc(-c2cccc3c(C(=O)NCCCN4CCC(N5CCCCC5)CC4)cc(C)nc23)cc1`, the pIC50 was 5.93 in data set [1]; 6.32 in data set [2] (setting [11]); about 6.13 in data set [2] (erythrocyte); 5.46 in data set [4]; 5.92 in data set [6]; 5.85 in data set [7]. Moreover, the pIC50 in data set [8] is 5.92. Moreover, the IC50 at 72 h in data set [3] worked out at 5010 nM; in data set [5] it was 4110 nM.

For `CC1(N2CCC2)CCC(NC[C@H]2CCN(Cc3ccccc3)C2)CC1` (stereo partly drawn), the pIC50 in data set [1] was 5.74; in data set [2] (erythrocyte), 5.79 and 6.21 and 6.20; in data set [6] it was 5.58; in data set [7] it was 5.04; in data set [8], 5.49; in data set [9] (setting [10]), 5.80. Besides, the pIC50 in [9] (erythrocyte) was 5.75 and 5.80. Besides, the IC50 at 72 h in [3] is over 10000 nM.

Regarding `O=C(NC1CCN(CCOc2ccc(Cl)cc2)CC1)c1c[nH]c2ccncc2c1=O`, the negative logarithm of the IC50 (pIC50) in data set [1] is 5.84; in data set [2] (erythrocyte), 6.22 and 6.05; in [6], 5.85; in data set [7], 5.50; in data set [8], 5.95. For the same compound, the IC50 at 72 h in data set [3] is over 10000 nM.

Regarding `c1ccc2c(CNCCC3CCN(c4ccncc4)CC3)csc2c1`, the pIC50 in data set [1] was 5.84; in data set [2] (setting [11]) it was 6.35; in [2] (erythrocyte), 6.38; in [4], 5.29; in data set [6], 5.74; in data set [7] it was 5.13. The same compound gave a pIC50 in [8] of 5.73. Besides, the IC50 at 72 h in [3] turned out to be 12300 nM; in data set [5], 4250 nM.

Regarding `Cc1cnccc1N1CCCN(Cc2ccccc2OCCN2CCN(C)CC2)CC1`, the pIC50 in [1] was 5.91; in data set [2] (setting [11]), 6.17; in data set [2] (erythrocyte) it was 6.12 and 6.04; in data set [6], 5.92; in data set [7], 5.61; in data set [8], 5.85. Further, in [3], the IC50 at 72 h is over 10000 nM.

With `c1ccc(CNc2ccc(-c3noc(C45CCCN(CCC4)C5)n3)cn2)cc1`, the pIC50 in [1] is 5.70; in data set [2] (setting [11]) it was about 5.03; in data set [2] (erythrocyte), 5.01; in data set [4], 4.70; in [6], 5.58; in data set [7], 5.49. In data set [8], this compound showed a pIC50 of 5.68. Further, the IC50 at 72 h was over 10000 nM in data set [3] and 20400 nM in data set [5].

With `COc1ccc(-c2cncc(C(=O)NCC3CCN(CCN(C)C)CC3)c2)cc1`, the pIC50 in [1] is 5.86; in data set [6], 5.86; in data set [7] it was 5.53; in data set [8], 5.77; in [9] (setting [10]), 5.64; in [9] (erythrocyte) it was 5.51. The same compound yielded an IC50 at 72 h in data set [3] of over 10000 nM.

As to `CN(C)C1CCN(CCN[C@H]2CCc3ccc(F)cc32)CC1`, the pIC50 in data set [1] is 6.15; in [2] (setting [11]) it was under 5.08; in [2] (erythrocyte), 4.83 and 4.90 and 4.80; in data set [6], 5.88; in data set [7], under 5.00; in data set [8], 6.09. For the same compound, the results for the IC50 at 72 h in data set [3] and in [5] were over 10000 nM and over 25000 nM, respectively.

`CCN1C[C@H](Nc2nc(C)nc3sccc23)[C@@H](OC)C1`: the pIC50 in data set [1] was 6.13; in data set [2] (setting [11]) it was under 4.60; in [6], 6.00; in data set [7] it was 5.89; in data set [8] it was 6.03. Further, the IC50 at 72 h is over 10000 nM in [3] and over 25000 nM in [5].

`CN1CCC(Oc2ccc(NC(=O)c3cn4ccnc4s3)cn2)CC1`: the pIC50 in data set [1] is 6.03; in data set [2] (setting [11]), 5.67; in [2] (erythrocyte) it was 5.63 and 5.86; in data set [4], 4.73; in [6], 5.80; in [7] it was 5.16. The same compound showed a pIC50 in data set [8] of 5.89. The IC50 at 72 h in data set [3] is over 10000 nM; in data set [5] it was over 25000 nM.

Consider `Cc1cnccc1NCCNCc1ccc(OC(C)C)c(Cl)c1`, for which the pIC50 in [1] is 6.01; in data set [2] (setting [11]), 6.36; in data set [2] (erythrocyte), 6.30; in [4] it was 5.16; in data set [6], 5.81; in data set [7], 5.02. In addition, in data set [8], the pIC50 is 5.98. For the same compound, the IC50 at 72 h in data set [3] was over 10000 nM; in data set [5] it was 6650 nM.

In the case of `COc1ccc2c(O)c(Br)c(C)nc2c1`, the pIC50 is 6.06 in data set [1]; 7.08 in data set [2] (setting [11]); 7.04 in [2] (erythrocyte); 4.66 in data set [4]; 5.83 in data set [6]; under 5.00 in [7]. In addition, in data set [8], the pIC50 was 6.12. The figures for the IC50 at 72 h in [3] and in [5] were over 10000 nM and 21600 nM, respectively.

As to `CN1CCN(CCCCNC2CC3CCC(C2)N3Cc2ccccc2)CC1` (stereo not drawn), the pIC50 was 5.74 in data set [1]; 5.97 in [2] (erythrocyte); 4.64 and < 5.08 in data set [4]; 5.52 in data set [6]; under 5.00 in data set [7]; 5.52 in data set [8]. The IC50 at 72 h in [3] was over 10000 nM.
